# Source: patent US9371331B2, “Modulators of methyl modifying enzymes, compositions and uses thereof” (Constellation Pharmaceuticals, Inc., priority 2012, dated 2016)
# Where two headings read alike, the source gives them in different places.
# Legend:
# EZH2 (rPRC2) = EZH2 (rPRC2) (Homo sapiens, UniProt Q15910); experiment: EZH2 assay: rPRC2, biotinylated oligonucleosomes, 3H SAM methyl transfer (FlashPlate scintillation); assay type: biochemical; settings: biotinylated oligonucleosome substrate
# Sequence of EZH2 (rPRC2) (Q15910 whole entry): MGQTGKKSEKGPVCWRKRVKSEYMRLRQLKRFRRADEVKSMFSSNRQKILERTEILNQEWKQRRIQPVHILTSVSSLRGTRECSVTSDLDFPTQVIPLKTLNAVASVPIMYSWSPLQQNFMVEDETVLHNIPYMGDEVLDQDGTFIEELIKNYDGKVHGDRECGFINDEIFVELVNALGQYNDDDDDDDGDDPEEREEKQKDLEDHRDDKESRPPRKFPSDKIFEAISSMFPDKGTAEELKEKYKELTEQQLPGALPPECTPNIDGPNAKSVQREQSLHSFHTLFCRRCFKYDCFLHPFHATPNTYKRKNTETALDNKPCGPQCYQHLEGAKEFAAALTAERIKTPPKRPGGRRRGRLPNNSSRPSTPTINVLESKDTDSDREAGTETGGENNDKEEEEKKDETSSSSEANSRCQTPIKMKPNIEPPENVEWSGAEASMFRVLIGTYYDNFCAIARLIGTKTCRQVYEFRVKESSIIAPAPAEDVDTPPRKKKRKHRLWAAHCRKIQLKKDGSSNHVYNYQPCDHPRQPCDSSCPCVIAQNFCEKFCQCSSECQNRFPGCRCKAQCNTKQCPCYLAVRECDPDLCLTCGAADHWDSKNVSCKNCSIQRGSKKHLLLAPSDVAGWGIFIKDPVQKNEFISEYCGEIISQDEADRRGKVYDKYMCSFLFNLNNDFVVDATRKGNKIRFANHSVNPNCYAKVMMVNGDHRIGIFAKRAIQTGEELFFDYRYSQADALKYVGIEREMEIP
# Sequence of EZH2 (rPRC2) (O75530 whole entry partner): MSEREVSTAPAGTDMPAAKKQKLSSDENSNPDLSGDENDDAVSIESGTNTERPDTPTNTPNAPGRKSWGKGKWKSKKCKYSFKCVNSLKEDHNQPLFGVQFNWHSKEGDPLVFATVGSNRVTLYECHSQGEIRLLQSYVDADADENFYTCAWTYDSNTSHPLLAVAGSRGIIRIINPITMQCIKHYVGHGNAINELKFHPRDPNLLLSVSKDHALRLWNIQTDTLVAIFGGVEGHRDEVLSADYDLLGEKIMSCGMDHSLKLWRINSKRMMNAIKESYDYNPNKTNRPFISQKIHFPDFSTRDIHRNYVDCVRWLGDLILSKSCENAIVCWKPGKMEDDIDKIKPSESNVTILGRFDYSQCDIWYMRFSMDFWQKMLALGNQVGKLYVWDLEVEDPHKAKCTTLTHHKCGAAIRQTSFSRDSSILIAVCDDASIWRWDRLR
# Sequence of EZH2 (rPRC2) (Q15022 whole entry partner): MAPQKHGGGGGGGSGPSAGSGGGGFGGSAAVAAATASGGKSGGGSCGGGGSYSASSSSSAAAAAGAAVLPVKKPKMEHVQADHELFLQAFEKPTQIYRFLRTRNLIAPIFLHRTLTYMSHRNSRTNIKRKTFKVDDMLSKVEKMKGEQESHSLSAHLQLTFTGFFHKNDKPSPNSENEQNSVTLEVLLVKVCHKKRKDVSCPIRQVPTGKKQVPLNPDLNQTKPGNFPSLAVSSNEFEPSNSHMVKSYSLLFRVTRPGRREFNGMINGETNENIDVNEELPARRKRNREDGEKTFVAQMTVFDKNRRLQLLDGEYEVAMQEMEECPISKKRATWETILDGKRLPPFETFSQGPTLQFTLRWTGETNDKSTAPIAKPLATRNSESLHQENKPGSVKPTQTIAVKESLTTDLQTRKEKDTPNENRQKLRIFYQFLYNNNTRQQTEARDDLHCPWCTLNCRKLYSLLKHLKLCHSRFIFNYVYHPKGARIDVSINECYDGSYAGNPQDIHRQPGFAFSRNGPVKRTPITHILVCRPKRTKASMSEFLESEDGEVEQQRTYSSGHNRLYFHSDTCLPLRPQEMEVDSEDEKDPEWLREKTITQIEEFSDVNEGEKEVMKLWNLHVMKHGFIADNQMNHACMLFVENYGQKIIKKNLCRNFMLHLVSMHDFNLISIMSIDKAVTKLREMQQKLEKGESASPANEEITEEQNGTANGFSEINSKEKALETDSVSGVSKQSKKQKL
# Method: Assays were carried out by mixing rPRC2 together with biotinylated oligonucleosome substrates in the presence of the radio-labeled enzyme co-factor, S-adenosyl-1-methionine (^3H SAM) (Perkin Elmer) and monitoring the enzymatically mediated transfer of tritiated methyl groups from ^3H SAM to histone lysine residues. The amount of resulting tritiated methyl histone product was measured by first capturing the biotinylated oligonucleosomes in streptavidin (SAV) coated FlashPlates (Perkin Elmer), followed by a wash step to remove un-reacted ^3H SAM, and then counting on a TopCount NXT 384 well plate scintillation counter (Perkin Elmer). The final assay conditions for EZH2 were as follows: 50 mM Tris Buffer pH 8.5, 1 mM DTT, 69 μM Brij-35 detergent, 5.0 mM MgCl2, 0.1 mg/mL BSA, 0.2 μM ^3H SAM, 0.2 μM biotinylated oligonucleosomes, 3.6 μM H3K27 mc3 peptide and 2 nM EZH2.
# A 12.5 μL volume of the HMT enzyme, H3K27me3 peptide and oligonucleosome substrate in assay buffer was added to each well of the assay plate using a Multidrop Combi (ThermoFisher). Compounds were pre-incubated with the enzyme for 20 min, followed by initiation of the methyltransferase reaction by addition of 12.5 μL of ^3H SAM in assay buffer (final volume=25 μL). The final concentrations of compounds ranged from a top default concentration of 80 μM down to 0.16 μM in ten 2-fold dilution steps. Reactions were carried out for 60 minutes and quenched with 20 μL per well of 1.96 mM SAH, 50 mM Tris pH 8.5, 200 mM EDTA. Stopped reactions were transferred to SAV coated Flashplates (Perkin Elmer), incubated for 120 min, washed with a plate washer, and then read on the TopCount NXT (1.0 min/well) to measure the amount of methyl histone product formed during the reaction.
# Y641N EZH2 = Y641N EZH2 (Homo sapiens, UniProt Q15910, Y641N); experiment: Y641N EZH2 assay: as EZH2 assay, with reconstituted H3K27Me2 oligonucleosomes as substrate; assay type: biochemical
# Sequence of Y641N EZH2 (Q15910 whole entry Y641N): as the sequence (Q15910 whole entry) above, with Y641N counted along it
# Sequence of Y641N EZH2 (O75530 whole entry partner): as the sequence (O75530 whole entry partner) above
# Sequence of Y641N EZH2 (Q15022 whole entry partner): as the sequence (Q15022 whole entry partner) above
# [1] = EZH2 IC50, wild-type EZH2 (rPRC2)
# [2] = Y641N EZH2 IC50, Y641N mutant EZH2, H3K27Me2 oligonucleosome substrate
Compound,IC50 (EZH2 (rPRC2); [1]),IC50 (Y641N EZH2; [2]),also measured
"CCOc1cc(C)[nH]c(=O)c1CNC(=O)c1c(C)n(C(C)COC)c2ncccc12 (racemic) [Compound 235, (±)-N-((4-ethoxy-6-methyl-2-oxo-1,2-dihydropyridin-3-yl)methyl)-1-(1-methoxypropan-2-yl)-2-methyl-1H-pyrrolo[2,3-b]pyridine-3-carboxamide]",100 to 1000 nM,1000 to 10000 nM,
"Cc1cc(C)c(CNC(=O)c2c(C)n([C@H](C)c3ccccc3)c3nc(C)ncc23)c(O)n1 [Compound 176, (R)-N-((2-hydroxy-4,6-dimethylpyridin-3-yl)methyl)-2,6-dimethyl-7-(1-phenylethyl)-7H-pyrrolo[2,3-d]pyrimidine-5-carboxamide]",< 100 nM,100 to 1000 nM,
"COc1cc(C)[nH]c(=O)c1CNC(=O)c1c(C)n(C(C)C(OC)C(F)(F)F)c2ncccc12 (centres unmarked) [Compound 312, N-((4-methoxy-6-methyl-2-oxo-1,2-dihydropyridin-3-yl)methyl)-2-methyl-1-(4,4,4-trifluoro-3-methoxybutan-2-yl)-1H-pyrrolo [2,3-b] pyridine-3-carboxamide]",100 to 1000 nM,100 to 1000 nM,
"Cc1cc(C)c(CNC(=O)c2cnn(CCc3ccccc3)c2C)c(O)n1 [Compound 110, N-((2-hydroxy-4,6-dimethylpyridin-3-yl)methyl)-5-methyl-1-phenethyl-1H-pyrazole-4-carboxamide]",,,"EZH2 IC50 (EZH2 (rPRC2); wild-type EZH2 (rPRC2)): *(10 μM); Y641N EZH2 IC50 (Y641N EZH2; Y641N mutant EZH2, H3K27Me2 oligonucleosome substrate): *(10 μM)"
"COc1cc(C)[nH]c(=O)c1CNC(=O)c1c(C)n(C(C)C#N)c2ncccc12 (racemic) [Compound 214, (±)-1-(1-cyanoethyl)-N-((4-methoxy-6-methyl-2-oxo-1,2-dihydropyridin-3-yl)methyl)-2-methyl-1H-pyrrolo[2,3-b]pyridine-3-carboxamide]",100 to 1000 nM,1000 to 10000 nM,
"COc1cc(C)[nH]c(=O)c1CNC(=O)c1c(C)n(C2CCN(C(=O)OC(C)(C)C)CC2)c2ccccc12 [Compound 331, tert-butyl 4-(3-(((4-methoxy-6-methyl-2-oxo-1,2-dihydropyridin-3-yl)methyl)carbamoyl)-2-methyl-1H-indol-1-yl)piperidine-1-carboxylate]",< 100 nM,100 to 1000 nM,
"CCc1cc(OC)c(CNC(=O)c2c(C)n(C(C)COC)c3ncccc23)c(=O)[nH]1 (racemic) [Compound 280, (±)-N-((6-ethyl-4-methoxy-2-oxo-1,2-dihydropyridin-3-yl)methyl)-1-(1-methoxypropan-2-yl)-2-methyl-1H-pyrrolo[2,3-b]pyridine-3-carboxamide]",100 to 1000 nM,1000 to 10000 nM,
"COc1cc(C)[nH]c(=O)c1CNC(=O)c1c(C)n(C(C)C(C)(C)OC)c2ccccc12 (racemic) [Compound 277, (±)-1-(3-methoxy-3-methylbutan-2-yl)-N-((4-methoxy-6-methyl-2-oxo-1,2-dihydropyridin-3-yl)methyl)-2-methyl-1H-indole-3-carboxamide]",< 100 nM,< 100 nM,
"Cc1cc(C)c(CNC(=O)c2cnn(-c3ccccc3)c2C)c(=O)[nH]1 [Compound 100, N-((4,6-dimethyl-2-oxo-1,2-dihydropyridin-3-yl)methyl)-5-methyl-1-phenyl-1H-pyrazole-4-carboxamide]",,,"IC50 (EZH2 (rPRC2); wild-type EZH2 (rPRC2), read-out: EZH2 IC50): 1000 to 10000 nM; IC50 (Y641N EZH2; Y641N mutant EZH2, H3K27Me2 oligonucleosome substrate, read-out: Y641N EZH2 IC50): > 10000 nM"
"Cc1cc(C)c(CNC(=O)c2c(C)n(C3CCOCC3)c3ncccc23)c(=O)[nH]1 [Compound 244, N-((4,6-dimethyl-2-oxo-1,2-dihydropyridin-3-yl)methyl)-2-methyl-1-(tetrahydro-2H-pyran-4-yl)-1H-pyrrolo[2,3-b]pyridine-3-carboxamide]",100 to 1000 nM,1000 to 10000 nM,
"COc1cc(C)[nH]c(=O)c1CNC(=O)c1c(C)n(C(C)C(C)OC)c2ccccc12 (single isomer, unassigned) [Compound 308, Trans-(R or S, R or S)-N-((4-methoxy-6-methyl-2-oxo-1,2-dihydropyridin-3-yl)methyl)-1-(3-methoxybutan-2-yl)-2-methyl-1H-indole-3-carboxamide]",100 to 1000 nM,100 to 1000 nM,
"CC[C@@H](C)n1c(C)c(C(=O)NCc2c(C)cc(C)[nH]c2=O)c2cnc(C(C)C)nc21 [Compound 197, (R)-7-(sec-butyl)-N-((4,6-dimethyl-2-oxo-1,2-dihydropyridin-3-yl)methyl)-2-isopropyl-6-methyl-7H-pyrrolo[2,3-d]pyrimidine-5-carboxamide]",100 to 1000 nM,100 to 1000 nM,
"COc1cc(C)[nH]c(=O)c1CNC(=O)c1c(C)n(C(C)c2ccn(C)c(=O)c2)c2ncccc12 (single isomer, unassigned) [Compound 268, (R or S)-N-((4-methoxy-6-methyl-2-oxo-1,2-dihydropyridin-3-yl)methyl)-2-methyl-1-(1-(1-methyl-2-oxo-1,2-dihydropyridin-4-yl)ethyl)-1H-pyrrolo[2,3-b]pyridine-3-carboxamide]",< 100 nM,100 to 1000 nM,
"COc1nccc(C(C)n2c(C)c(C(=O)NCc3c(OC)cc(C)[nH]c3=O)c3cccnc32)n1 (racemic) [Compound 232, (±)-N-((4-methoxy-6-methyl-2-oxo-1,2-dihydropyridin-3-yl)methyl)-1-(1-(2-methoxypyrimidin-4-yl)ethyl)-2-methyl-1H-pyrrolo[2,3-b]pyridine-3-carboxamide]",100 to 1000 nM,1000 to 10000 nM,
"Cc1cc(C)c(CNC(=O)c2c(C)n(C(C)c3cccc(C(N)=O)c3)c3ccccc23)c(=O)[nH]1 (single isomer, unassigned) [Compound 225, (R or S)-1-(1-(3-carbamoylphenyl)ethyl)-N-((4,6-dimethyl-2-oxo-1,2-dihydropyridin-3-yl)methyl)-2-methyl-1H-indole-3-carboxamide]",< 100 nM,< 100 nM,
"CCC(c1ccccc1)n1c(C)c(C(=O)NCc2c(C)cc(C)[nH]c2=O)c2cccnc21 (racemic) [Compound 220, (±)-N-((4,6-dimethyl-2-oxo-1,2-dihydropyridin-3-yl)methyl)-2-methyl-1-(1-phenylpropyl)-1H-pyrrolo[2,3-b]pyridine-3-carboxamide]",< 100 nM,100 to 1000 nM,
"Cc1cc(C)c(COC(=O)c2c(C)n(C3CCOC3)c3ncccc23)c(=O)[nH]1 (racemic) [Compound 202, (±)-(4,6-dimethyl-2-oxo-1,2-dihydropyridin-3-yl)methyl 2-methyl-1-(tetrahydrofuran-3-yl)-1H-pyrrolo[2,3-b]pyridine-3-carboxylate]",100 to 1000 nM,1000 to 10000 nM,
"COCC(C)n1c(C)c(C(=O)NCc2c(OC)cc(C3CC3)[nH]c2=O)c2cccnc21 (racemic) [Compound 260, (±)-N-((6-cyclopropyl-4-methoxy-2-oxo-1,2-dihydropyridin-3-yl)methyl)-1-(1-methoxypropan-2-yl)-2-methyl-1H-pyrrolo[2,3-b]pyridine-3-carboxamide]",100 to 1000 nM,1000 to 10000 nM,
"COc1cc(C)[nH]c(=O)c1CNC(=O)c1c(C)n(C(C)C2CCS(=O)(=O)CC2)c2ccccc12 (single isomer, unassigned) [Compound 305, (R or S)-1-(1-(1,1-dioxidotetrahydro-2H-thiopyran-4-yl)ethy1)-N-((4-methoxy-6-methyl-2-oxo-1,2-dihydropyridin-3-yl)methy1)-2-methyl-1H-indole-3-carboxamide]",< 100 nM,100 to 1000 nM,
"Cc1cc(C)c(CNC(=O)c2c(C)n(C(C)C(C)(C)O)c3ncccc23)c(=O)[nH]1 (centres unmarked) [Compound 271, N-((4,6-dimethyl-2-oxo-1,2-dihydropyridin-3-yl)methyl)-1-(3-hydroxy-3-methylbutan-2-yl)-2-methyl-1H-pyrrolo[2,3-b]pyridine-3-carboxamide]",1000 to 10000 nM,1000 to 10000 nM,
"CCC(OC)C(C)n1c(C)c(C(=O)NCc2c(OC)cc(C)[nH]c2=O)c2cccnc21 (centres unmarked) [Compound 293, N-((4-methoxy-6-methyl-2-oxo-1,2-dihydropyridin-3-yl)methyl)-1-(3-methoxypentan-2-yl)-2-methyl-1H-pyrrolo [2,3-b] pyridine-3-carboxamide]",< 100 nM,100 to 1000 nM,
"CCC(OC)C(C)n1c(C)c(C(=O)NCc2c(OC)cc(C)[nH]c2=O)c2ccccc21 (centres unmarked) [Compound 299, N-((4-methoxy-6-methyl-2-oxo-1,2-dihydropyridin-3-yl)methyl)-1-(3-methoxypentan-2-yl)-2-methyl-1H-indole-3-carboxamide]",< 100 nM,< 100 nM,
